According to US20130095059A1, “INHALED NO DONOR KMUPS DERIVATIVE PREVENTING ALLERGIC PULMONARY VASCULAR AND BRONCHIAL INFLAMMATION VIA SUPPRESSED CYTOKINES, INOS AND INFLAMMATORY CELL COUNTS IN ASTHMA MODEL” (priority 2007, published 2013):

Key:
[1] = system: PASMCs; assay: Microculture tetrazolium test (MTT), PASMCs proliferation; assay type: cell-based, Wistar rats; conditions: 1-100 μM; 5-HT 10 μM 24 h
Description: At the end of this period, MTT (2 g/L) was added to each well, and incubation proceeded at 37° C. for 4 h. Thereafter, the medium was removed and the cells were solubilized in 150 μL DMSO.

[2] = system: NO; assay: Nitric oxide production in HPAEC (Griess); assay type: cell-based, human; conditions: 10 μM, 24 h before adding 5-HT
Description: Production of NO in HPAEC was determined using the Griess method. The three step Greiss test converts nitrate (NO3^−) into nitrite (NO2^−) giving a total NO2^− concentration from a standard calibration curve. HPAEC were incubated with or without KMUP-1 (10 μM) for 24 h and then incubated with 5-HT (10 μmol/L) for 30 min. Media samples from HPAEC were taken and the NO concentration was determined. Six independent experiments were carried out and data are reported as the mean mean±SEM.

[3] = system: IL-13; assay: Ovalbumine model, plasma IL-13 (ELISA); assay type: in vivo, mice; conditions: mice sensitized and challenged by ovalbumine
Description: (§1) In this long-term experiment, 6-8 week old BALB/c female mice were sensitized on days 1 and 8 by intra-peritoneal injection (i.p.) of ovalbumine (10 μg) (Sigma-Aldrich, Schnelldorf, Germany) adsorbed to 2 mg aluminum hydroxide (AlumInject; Perbio, Erembodegem, Belgium). Mice were divided into three groups. In Group 1, a control group was only exposed to saline nebulization by aerosol. The other 2 groups were subjected to ovalbumine (1%) nebulization. Before each challenge with ovalbumine, mice were either exposed to saline nebulization (Group 2) or KMUP-1 nebulization (5 mM) for 30 min by aerosol (Group 3).

[4] = system: MMP-9; assay: Ovalbumine model, MMP-9 expression, zymography and immunostaining; assay type: in vivo, BALB/c mice
Description: as §1
The gelatinolytic activity of MMP-9 was measured by gelatin zymography as described previously (Cataldo D D, et al., 2002). Briefly, BALF (10 μl) was subjected to electrophoresis in 10% polyacrylamide gel containing gelatin (1 mg/ml). The gel was washed in 2.5% Triton X-100 to permit re-naturation of gelatinases and stained with Coomassie blue after overnight incubation. Destaining visualized clear zones of lysis against a blue background indicated the gelatinase activity (Hibbs, M S, et al., 1985).
The lung tissues were homogenized, washed with PBS and incubated in lysis buffer in addition to a protease inhibitor cocktail (Sigma, St. Louis, Mo.) to obtain extracts of lung proteins. A Western blot analysis was performed as described previously (Wu B N, et al., 2006). The samples were loaded to 10% SDS-PAGE gels and were separated at 120 V for 90 min. The blots were incubated with anti-eNOS antibody diluted at a ratio of 1:500, anti-sGCα1 antibody diluted at a ratio of 1:2000, anti-PKG antibody diluted at a ratio of 1:500, anti-VCAM-1 antibody diluted at a ratio of 1:500, anti-ICAM-1 antibody diluted at a ratio of 1:500, and anti-MMP-9 antibody diluted at a ratio of 1:600 overnight at 4° C. The membranes were stripped and re-blotted with anti-actin antibody (Sigma, St. Louis, Mo.) to verify the equal loading of protein in each lane.
Immunohistochemical analysis of eNOS enhancement by KMUP-1 was performed as follows. The lungs were perfused with saline followed by 10% formalin and then placed in 10% formalin for paraffin embedding. The lung tissues were cut into […] sections onto slides, dewaxed in 100% xylene, and then re-hydrated in graded alcohol solutions. Throughout the procedures, slides were washed as appropriate in PBS. Antigen retrieval was performed by microwave treatment for eNOS immunostaining. Sections were treated with 3% H2O2 (10 min) to inhibit endogenous peroxidases and incubated with normal serum (60 min) to reduce nonspecific binding of secondary antibodies. Sections were then incubated at 4° C. overnight with eNOS antibodies. After washing off unbounded primary antibodies, sections were incubated with secondary biotinylated antibodies against mouse or rabbit (DAKO Co., Japan) (60 min), followed by incubation in avidin/biotin/horseradish peroxidase complex (DAKO Co., Japan) (30 min) Subsequently, peroxidase activity was visualized by incubation (3 min) with 0.05% 3,3′-diaminobenzidine (DAKO Co., Japan), which gives a brown reaction product. The reaction was stopped by washing with water. The slides were counterstained with hematoxylin. For immunostaining of MMP-9 in lung tissue, the de-paraffinized 3-5 μm sections of lung tissue was performed as above eNOS, but using MMP-9 antibody.

[5] = biological target: T1, 5-HT2B receptor (Homo sapiens, UniProt P41595); assay: Displacement of radioligand binding, 5-HT2B
T1 construct: full length clones of 5-HT2A, 5-HT2B and 5-HT2C receptor were prepared from CHO-K1 cells; expressed in transfected cells; host or cells: CHO-K1
T1 sequence (P41595 whole entry): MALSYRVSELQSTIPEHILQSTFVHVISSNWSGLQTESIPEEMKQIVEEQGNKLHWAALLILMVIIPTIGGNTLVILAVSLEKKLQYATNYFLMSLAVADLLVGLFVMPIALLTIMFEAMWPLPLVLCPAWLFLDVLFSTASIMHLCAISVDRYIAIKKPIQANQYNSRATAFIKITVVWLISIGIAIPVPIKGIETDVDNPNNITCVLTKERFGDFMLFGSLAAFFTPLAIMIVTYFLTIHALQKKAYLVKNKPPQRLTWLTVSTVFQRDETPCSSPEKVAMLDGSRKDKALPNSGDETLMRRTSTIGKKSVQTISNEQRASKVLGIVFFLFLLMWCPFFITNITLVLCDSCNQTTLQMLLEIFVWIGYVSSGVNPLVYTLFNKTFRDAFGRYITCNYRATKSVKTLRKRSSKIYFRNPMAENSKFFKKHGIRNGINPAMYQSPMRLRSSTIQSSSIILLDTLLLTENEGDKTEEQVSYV
Description: Displacement of Radioligand Binding Assay
As described previously, full length clones of 5-HT2A, 5-HT2B and 5-HT2C receptor were prepared from CHO-K1 cells. […] IC50 represents the concentration of competing ligand which displaces 50% of the specific binding of the radioligand. Ki values for competition curves were calculated using the Cheng-Prusoff equation (Cheng, 2001).

[6] = system: ERK1/2; assay: 5-HT-induced ERK1/2 phosphorylation in PASMCs; assay type: cell-based, Wistar rats; conditions: 1-100 μM, 24 h pre-incubation
Description: (§2) PASMCs were stimulated with 5-HT or not, as indicated. Cells were treated with KMUP-1 for 24 h before 5-HT stimulation. Whole lysates were collected and resolved by SDS-PAGE as previously described. Primary antibodies were anti-β-actin at: 1:10,000 dilution and anti-RhoA, anti-ROCK, antiphospho-ERK1/2, anti-phospho-AKT, anti-ERK1/2, anti-AKT, anti-5HTT, anti-5-HT2B and anti-eNOS at 1:1000. All blots were incubated with antibodies at 4° C. overnight. After being washed, the appropriate secondary antibodies were added at a dilution of 1:1000 for 1 h at room temperature. After extensive washing, blots were developed with a Super Signal enhanced chemiluminescence kit (Biorad, CA, USA) and visualized on Kodak AR film.
(§3) The expression of RhoA/ROCK and phosphorylation of ERK1/2 and AKT kinase in PASMCs were assessed by incubating the PASMCs with 5-HT (10 μM) for 15 min (peak time for RhoA/ROCK, ERK1/2 and AKT phosphorylation) and 5-HTT for 10 min (peak time for 5-HTT) after KMUP-1 (1-100 μM) was added to the culture of PASMCs for 24 h.

[7] = system: AKT; assay: 5-HT-induced AKT phosphorylation in PASMCs; assay type: cell-based, Wistar rats; conditions: 1-100 μM, 24 h pre-incubation
Description: as §2, §3

## Cn1c(=O)c2c(ncn2CCN2CCN(c3ccccc3Cl)CC2)n(C)c1=O [KMUP-1, 7-[2-[4-(2-chlorophenyl)piperazinyl]ethyl]-1,3-dimethylxanthine]
[1]
  PASMCs proliferation (MTT assay): dose-dependently inhibited
[2]
  release of NO compared to 5-HT treatment alone: raised
[3]
  IL-13 levels in the plasma: inhibited
[4]; 28-day experiment, nebulization
  increased MMP-9 expression by ovalbumine sensitization: significantly reduced
[4]; BALF, versus ovalbumine
  zymography of MMP-9: decreased
[4]; ovalbumine-sensitized and -challenged mice
  MMP-9 positive cells (immunostaining): hardly detected
[5]
  ligand specificity of 5-HT2B receptor versus 5-HT2A and 5-HT2C receptors: more selective
[5]; [^3H]-LSD, human recombinant CHO-K1 cells
  IC50: 40 nM
[5]; [^3H]-LSD, human recombinant CHO-K1 cells, Cheng-Prusoff
  Ki: 25.4 nM
[6]
  5-HT-stimulated ERK1/2 phosphorylation: concentration-dependently reduced
[7]
  5-HT-stimulated AKT phosphorylation: concentration-dependently reduced
